Data taken from patent US20240108654A1, “COMBINATION OF A T CELL THERAPY AND A DGK INHIBITOR” (Juno Therapeutics, Inc., priority 2021, published 2024).
pEC50, pIC50: −log10 of the molar value. Like-named read-outs stand apart in the source and are kept apart here.

Experiments:
[1] = test system: Human venous whole blood; assay: Human whole blood IFN-γ assay; type: cell-based; conditions: anti-CD3 and anti-CD28 1 μg/mL each, 3 μM reference compound as 100% activation, read-out: INFg Whole Blood Normalized Agonist EC50
Experimental: Human venous whole blood (22.5 μL per well), obtained from healthy donors, was pre-treated with compounds for one hour at 37° C. in a humidified 95% air/5% CO2 incubator. The blood was stimulated with 2.5 μL anti-human CD3 and anti-CD28 mAb at a final concentration of 1 μg/mL each for 24 hours at 37° C. IFN-γ in the supernatants was measured using ALphLISA kit (Cat #AL217).

[2] = biological target: human DGKζ (Homo sapiens (Human), UniProt Q13574); assay: DGKζ liposome (LIPGLO) in vitro DGK inhibition assay; type: biochemical; conditions: extruded liposome substrate; 150 μM ATP; 5 nM enzyme; read-out: DGKz LIPGLO IC50
Experimental: The DGKα and DGKζ reactions were performed using either extruded liposome (DGKα and DGKζ LIPGLO assays) or detergent/lipid micelle substrate (DGKα and DGKζ assays). The reactions were carried out in 50 mM MOPS pH 7.5, 100 mM NaCl, 10 mM MgCl2, 1 μM CaCl2), and 1 mM DTT (assay buffer). The reactions using a detergent/lipid micelle substrate also contained 50 mM octyl B-D-glucopyranoside. The lipid substrate concentrations were 11 mM PS and 1 mM DAG for the detergent/lipid micelle reactions. The lipid substrate concentrations were 2 mM PS, 0.25 mM DAG, and 2.75 mM PC for the extruded liposome reactions. The reactions were carried out in 150 μM ATP. The enzyme concentrations for the DGKα and DGKζ were 5 nM.
The compound inhibition studies were carried out as follows: 50 nL droplets of each test compound (top concentration 10 mM with 11 point, 3-fold dilution series for each compound) solubilized in DMSO were transferred to wells of a white 1536 well plate (Corning 3725). A 5 mL enzyme/substrate solution at 2× final reaction concentration was prepared by combining 2.5 mL 4× enzyme solution (20 nM DGKα or DGKζ (prepared as described below) in assay buffer) and 2.5 mL of either 4× liposome or 4× detergent/lipid micelle solution (compositions described below) and incubated at room temperature for 10 minutes. Next, 1 μL 2× enzyme/substrate solution was added to wells containing the test compound and reactions were initiated with the addition of 1 μL 300 uM ATP. The reactions were allowed to proceed for 1 hr, after which 2 μL Glo Reagent (Promega V9101) was added and incubated for 40 minutes. Next, 4 μL Kinase Detection Reagent was added and incubated for 30 minutes. Luminescence was recorded using an EnVision microplate reader. […] The compounds were evaluated at 11 concentrations to determine IC50.
The lipid composition was 5 mol % DAG (Avanti 8008110), 40 mol % PS (Avanti 840035P), and 55 mol % PC (Avanti 850457) at a total lipid concentration of 15.2 mg/mL for the 4× liposome solution. The PC, DAG, and PS were dissolved in chloroform, combined, and dried in vacuo to a thin film. The lipids were hydrated to 20 mM in 50 mM MOPS pH 7.5, 100 mM NaCl, 5 mM MgCl2, and were freeze-thawed five times. The lipid suspension was extruded through a 100 nm polycarbonate filter eleven times. Dynamic light scattering was carried out to confirm liposome size (50-60 nm radius). The liposome preparation was stored at 4° C. for as long as four weeks.
Human DGK-alpha-TVMV-His-pFBgate and human DGK-zeta-transcript variant-2-TVMV-His-pFBgate baculovirus samples were generated using the Bac-to-Bac baculovirus expression system (Invitrogen) according to the manufacturer's protocol. The DNA used for expression of DGK-alpha and DGK-zeta have SEQ ID NOs: 251 and 252, respectively. Baculovirus amplification was achieved using infected Sf9 cells at 1:1500 virus/cell ratios, and grown for 65 hours at 27° C. post-transfection.
The expression scale up for each protein was carried out in the Cellbag 50 L WAVE-Bioreactor System 20/50 from GE Healthcare Bioscience. 12 L of 2×10^6 cells/mL Sf9 cells (Expression System, Davis, CA) grown in ESF921 insect medium (Expression System) were infected with virus stock at 1:200 virus/cell ratios, and grown for 66-68 hours at 27° C. post-infection. The infected cell culture was harvested by centrifugation at 2000 rpm for 20 min 4° C. in a SORVALL® RC12BP centrifuge. The cell pellets were stored at −70° C. until purification. […]

[3] = biological target: human DGKα (Homo sapiens (Human), UniProt P23743); assay: DGKα liposome (LIPGLO) in vitro DGK inhibition assay; type: biochemical; conditions: extruded liposome substrate; 150 μM ATP; 5 nM enzyme; read-out: DGKa LIPGLO IC50
[4] = test system: OT-1 antigen-specific CD8+ T cells with SIINFEKL-loaded MC38 tumor cells; assay: Murine cytotoxic T lymphocyte (CTL) assay, IFN-γ readout; type: cell-based, mouse; conditions: IFN-γ in supernatant after 24 hours, AlphaLisa; read-out: msCTL INFg IC50
Source text: An antigen-specific cytolytic T-cell (CTL) assay was developed to evaluate functionally the ability of DGKα and DGKζ inhibitors to enhance effector T cell mediated tumor cell killing activity. CD8+ T-cells isolated from the OT-1 transgenic mouse recognize antigen presenting cells, MC38, that present the ovalbumin derived peptide […]. Recognition of the cognate antigen initiates the cytolytic activity of the OT-1 antigen-specific CD8+ T cells.
Functional CTL cells were generated as follows: OT-1 splenocytes from 8-12 week old mice were isolated and expanded in the presence of the […] peptide at 1 μg/mL and mIL2 at 10 U/mL. After three days, fresh media with […] was added. On day 5 of the expansion, the CD8+ T cells were isolated and ready for use. Activated CTL cells may be stored frozen for 6 months. Separately, one million MC38 tumor cells were pulsed with 1 μg/mL of […]-OVA peptide for 3 hours at 37° C. The cells were washed (3×) with fresh media to remove excess peptide. Finally, CTL cells that were pretreated with DGK inhibitors for 1 hour in a 96-well U bottom plate were combined with the antigen loaded MC38 tumor cells at a 1:10 ratio. The cells were then spun at 700 rpm for 5 min and placed in an incubator overnight at 37° C. After 24 hours, the supernatant was collected for analysis of IFN-γ cytokine levels by AlphaLisa purchased from Perkin Elmer.

[5] = test system: naïve human CD8 T cells; assay: Human CD8 T cells IFN-γ assay; type: cell-based; conditions: anti-CD3 plus anti-CD28 as baseline, 3 μM reference compound as 100% activation, 20 h, read-out: HuCD8 INFG Normalized EC50
Experimental: Frozen naïve human CD8 T cells were thawed in AIM-V media, incubated for 2 h in 37° C., and counted. The 384-well tissue culture plate was coated overnight at 4° C. with 20 μL anti-human CD3 at 0.05 μg/mL in PBS, which was removed off the plate before 40,000 cells per 40 microliters CD8 T cells with 0.1 μg/mL soluble anti-human CD28 were added to each well. The compounds were transferred using an Echo liquid handler to the cell plate immediately after the cells were plated. After 20 h incubation at 37° C. incubator, 3 microliters per well supernatants transferred into anew 384-well white assay plate for cytokine measurement.
Interferon-γ (IFN-γ) was quantitated using the AlphLISA kit (Cat #AL217) as described by the manufacturer manual (Perkin Elmer). The counts from each well were converted to IFN-γ concentration (pg/mL).

Sequence of human DGKα (P23743 other isoform, or with tags, fused parts or gaps): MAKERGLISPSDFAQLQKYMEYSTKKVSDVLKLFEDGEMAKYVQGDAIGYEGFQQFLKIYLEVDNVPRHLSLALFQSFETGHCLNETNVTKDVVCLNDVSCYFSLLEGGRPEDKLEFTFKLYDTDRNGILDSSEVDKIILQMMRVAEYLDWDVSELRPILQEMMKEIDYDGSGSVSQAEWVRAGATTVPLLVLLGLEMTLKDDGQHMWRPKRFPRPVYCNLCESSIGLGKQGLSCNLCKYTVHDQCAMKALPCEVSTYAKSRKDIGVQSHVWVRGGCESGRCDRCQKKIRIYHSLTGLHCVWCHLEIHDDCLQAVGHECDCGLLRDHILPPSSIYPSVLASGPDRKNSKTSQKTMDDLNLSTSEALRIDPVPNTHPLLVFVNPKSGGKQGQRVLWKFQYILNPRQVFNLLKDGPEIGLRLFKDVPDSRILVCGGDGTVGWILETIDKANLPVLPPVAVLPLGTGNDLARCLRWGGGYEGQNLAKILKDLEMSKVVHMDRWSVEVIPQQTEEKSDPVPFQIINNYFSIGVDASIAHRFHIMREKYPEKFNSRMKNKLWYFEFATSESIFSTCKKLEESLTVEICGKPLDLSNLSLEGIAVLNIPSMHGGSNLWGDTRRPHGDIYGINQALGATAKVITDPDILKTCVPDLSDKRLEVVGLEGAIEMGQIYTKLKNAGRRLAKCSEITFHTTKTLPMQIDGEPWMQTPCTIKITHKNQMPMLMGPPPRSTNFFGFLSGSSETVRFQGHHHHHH
Sequence of human DGKζ (Q13574 other isoform, or with tags, fused parts or gaps isoform Q13574-4): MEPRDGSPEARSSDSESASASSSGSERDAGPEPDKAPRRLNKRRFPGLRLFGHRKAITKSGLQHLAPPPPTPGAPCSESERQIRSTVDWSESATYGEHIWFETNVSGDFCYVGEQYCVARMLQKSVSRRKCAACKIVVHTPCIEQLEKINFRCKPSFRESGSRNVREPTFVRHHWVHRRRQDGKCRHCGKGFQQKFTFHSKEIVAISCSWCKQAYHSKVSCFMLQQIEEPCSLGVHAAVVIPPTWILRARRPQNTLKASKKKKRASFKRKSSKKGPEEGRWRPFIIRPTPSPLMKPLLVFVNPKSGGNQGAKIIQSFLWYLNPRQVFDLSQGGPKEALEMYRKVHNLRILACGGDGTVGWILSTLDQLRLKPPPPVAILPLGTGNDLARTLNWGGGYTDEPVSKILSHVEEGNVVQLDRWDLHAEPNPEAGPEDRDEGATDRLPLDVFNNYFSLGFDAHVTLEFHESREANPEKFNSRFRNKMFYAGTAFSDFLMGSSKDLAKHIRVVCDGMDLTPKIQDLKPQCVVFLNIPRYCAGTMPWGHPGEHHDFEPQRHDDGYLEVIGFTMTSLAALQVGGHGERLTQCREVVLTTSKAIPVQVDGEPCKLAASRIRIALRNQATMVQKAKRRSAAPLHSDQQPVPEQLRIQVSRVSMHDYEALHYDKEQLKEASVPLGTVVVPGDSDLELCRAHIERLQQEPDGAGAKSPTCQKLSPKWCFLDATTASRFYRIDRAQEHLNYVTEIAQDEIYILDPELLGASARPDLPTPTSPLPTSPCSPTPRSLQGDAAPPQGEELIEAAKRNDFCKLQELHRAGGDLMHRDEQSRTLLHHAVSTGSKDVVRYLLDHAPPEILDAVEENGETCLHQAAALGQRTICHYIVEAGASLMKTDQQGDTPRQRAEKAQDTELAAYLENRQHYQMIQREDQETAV

| pIC50 [2] | pIC50 [3] | SMILES | pEC50 ([1]; 24 hours) | other results |
| --- | --- | --- | --- | --- |
| – | – | CC[C@@H]1CN(c2nc(=O)n(C)c3ccc(C#N)nc23)[C@@H](C)CN1C(C)c1ccc(C(F)(F)F)cc1 (single isomer, unassigned) [Compound 19] | 6.28 | – |
| – | – | CC[C@@H]1CN(c2nc(=O)n(C)c3ccc(C#N)nc23)[C@@H](C)CN1C(C)c1ccc(C(F)(F)F)cc1 (single isomer, unassigned) [Compound 20] | 7.49 | – |
| – | – | CC[C@@H]1CN(c2nc(=O)n(C)c3ccc(C#N)nc23)[C@@H](C)CN1C(c1ccc(F)cc1)c1ccc(C(F)(F)F)cn1 (single isomer, unassigned) [Compound 22] | – | pEC50 ([1]; Homo sapiens, 24 h): 7.70 |
| – | – | CC[C@@H]1CN(c2nc(=O)n(C)c3ccc(C#N)nc23)[C@@H](C)CN1C(c1ccc(Cl)cc1)c1ccccn1 (single isomer, unassigned) [Compound 24] | 6.70 | – |
| 6.34 | 6.24 | CCC(c1ccc(F)cc1F)N1C[C@H](C)N(c2cc(=O)n(C)c3ccc(C#N)nc23)C[C@H]1C (mixture of isomers) [Compound 12, 8-((2S,5R)-4-(1-(2,4-difluorophenyl)propyl)-2,5-dimethylpiperazin-1-yl)-5-methyl-6-oxo-5,6-dihydro-1,5-naphthyridine-2-carbonitrile] | – | – |
| 7.54 | 7.17 | CCC1CN(C(c2ccc(F)cc2)c2nc(C3CC3)no2)C(CC)CN1c1nc(=O)n(C)c2ccc(C#N)nc12 (single isomer, unassigned) [Compound 25] | 7.82 | – |
| 7.48 | 7.85 | CCC1CN(C(c2ccc(F)cc2)c2nc(C3CC3)no2)C(CC)CN1c1nc(=O)n(C)c2ccc(C#N)nc12 (single isomer, unassigned) [Compound 26] | 7.05 | – |
| – | – | C[C@@H]1CN(c2cc(=O)n(C)c3ccc(C#N)nc23)[C@@H](C)CN1C(c1ccccc1)c1ccc(F)cc1 (single isomer, unassigned) [Compound 7] | 6.24 | pIC50 [4]: 7.19; pEC50 [5]: 7.33 |
| – | – | CC[C@@H]1CN(c2nc(=O)n(C)c3ccc(C#N)nc23)[C@@H](C)CN1C(c1ccc(F)cc1)c1ccc(C(F)(F)F)cn1 (stereo partly drawn) [Compound 21, 4-((2S,5R)-5-Ethyl-4-((4-fluorophenyl)(5-(trifluoromethyl)pyridin-2-yl)methyl)-2-methylpiperazin-1-yl)-1-methyl-2-oxo-1,2-dihydropyrido[3,2-d]pyrimidine-6-carbonitrile] | – | pEC50 ([1]; Homo sapiens, 24 h): 7.37 |
| – | – | CCC(c1ccc(C(F)(F)F)cc1)N1C[C@H](CC)N(c2nc(=O)n(C)c3ccc(C#N)nc23)C[C@H]1CC (stereo partly drawn) [Compound 18, 4-((2S,5R)-2,5-Diethyl-4-(1-(4-(trifluoromethyl)phenyl)propyl)piperazin-1-yl)-1-methyl-2-oxo-1,2-dihydropyrido[3,2-d]pyrimidine-6-carbonitrile] | 5.43 | – |
| 6.49 | 6.17 | Cc1ccc(C(c2ccc(F)cc2)N2C[C@H](C)N(c3cc(=O)n(C)c4ccc(C#N)nc34)C[C@H]2C)cc1 (stereo partly drawn) [Compound 10, 8-[(2S,5R)-4-[(4-fluorophenyl)(4-methylphenyl)methyl]-2,5-dimethylpiperazin-1-yl]-5-methyl-6-oxo-5,6-dihydro-1,5-naphthyridine-2-carbonitrile] | – | pEC50 ([5]; Homo sapiens, T-cell): 7.64; pEC50 ([1]; Homo sapiens, 24 h): 6.36 |
| 5.80 | 6.06 | C[C@@H]1CN(c2cc(=O)n(C)c3ccc(C#N)nc23)[C@@H](C)CN1C(c1ccccc1)c1ccc(F)cc1 (stereo partly drawn) [Compound 5, 8-[(2S,5R)-4-[(4-fluorophenyl)(phenyl)methyl]-2,5-dimethylpiperazin-1-yl]-5-methyl-6-oxo-5,6-dihydro-1,5-naphthyridine-2-carbonitrile] | – | – |
| – | – | CC[C@@H]1CN(c2nc(=O)n(C)c3ccc(C#N)nc23)[C@@H](C)CN1C(c1ccc(Cl)cc1)c1ccccn1 (single isomer, unassigned) [Compound 23] | 4.98 | – |
